Converted amounts (≈) assume the structure as drawn. Where two headings read alike, the source gives them in different places. One block for each compound: values may come before it.
Experiments:
S. epidermidis biofilm = S. epidermidis biofilm assay (activity tables); format: cell-based, Staphylococcus epidermidis
Outline: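 Overnight TSB cultures diluted to OD600 0.01 and grown static with compound (triplicate) at 37° C for 16 h; turbidity recorded for growth. Biofilm: washed wells ethanol-fixed, stained with 0.5% crystal violet, A570 read before and after 95% ethanol extraction; mean ± SD.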

H. pylori = test: MIC testing by broth dilution, H. pylori; format: cell-based, Helicobacter pylori
Outline: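 Helicobacter pylori was tested using a standard broth dilution method in 96 well microplates, each well holding a standard dilution of the organism in 100 microliters of Brain Heart Infusion. Compounds started at 32 μg/ml in 200 microliters in the first well and were serially diluted from 32 to 0.06. Wells were read visually at 24 h, and the MIC was the well with no growth.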

E. coli biofilm = E. coli biofilm assay (activity tables); format: cell-based, Escherichia coli
Outline: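 E. coli strain 042 inoculated 1:100 with NTZ-containing medium and grown statically at 37 °C for 24 h. Growth measured by turbidity or plate counts (cfu/ml); biofilm stained with 0.5% crystal violet and read at 570 nm; triplicate, mean ± SD.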

E. coli = test: MIC testing by broth dilution, E. coli plank; format: cell-based, Escherichia coli
Outline: (§1)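 Compounds were diluted serially from 32 μg/ml to 0.06 in medium holding a standard inoculum, then visually scored at 24 h, and the lowest well without growth was recorded. Media were LB for E. coli, Trypticase Soy for S. epidermidis and Brain Heart Infusion for C. jejuni. C. difficile zones were measured anaerobically relative to NTZ.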

C. jejuni = test: MIC testing by broth dilution, C. jejuni; format: cell-based, Campylobacter jejuni
Outline: as §1

S. epidermidis = test: MIC testing by broth dilution, S. epidermidis plank; format: cell-based, Staphylococcus epidermidis
Outline: as §1

MRSA = test: MIC testing by broth dilution, MRSA; format: cell-based, Staphylococcus aureus
Outline: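 Values are broth-dilution MICs, defined as the well showing no growth on visual reading after 24 h; the tested range was 32 to 0.06 μg/ml, in organism-specific media (LB, Trypticase Soy, Brain Heart Infusion). The C. difficile entries come instead from anaerobic Kirby-Bauer disk zones, normalised to NTZ.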

[1] = tested on: PFOR (pyruvate ferredoxin oxidoreductase); test: Direct PFOR enzyme assay; format: biochemical
Description: (§2) Representative compounds of the invention were tested in a series of assays against a series of organisms as described above. […] The organisms tested include, C. difficile, H. pylori, C. jejuni, MRSA, S. epidermidis, and E. coli. S. epidermidis and E. coli were tested in the plank and biofilm assay. A disk diffusion assay was also used for C. difficile. Direct PFOR enzyme assays were also performed. All analogues and derivatives were not tested on every organism in every type of assay (the “-” in each table means that it was not tested).

C. difficile [2] = test: Disk diffusion (Kirby Bower), C. difficile; format: cell-based, Clostridium difficile; settings: for Disk Diffusion (%) C. difficile: zone of inhibited growth as relative ratio to the zone for NTZ; for Disk Diff (%) C. difficile: Nitazoxanide = 100, Thiophene analogues table
Outline: as §1

C. difficile [3] = test: MIC by agar dilution, C. difficile; format: cell-based, Clostridium difficile
Description: A standard broth dilution protocol was used in 96 well microplates containing a standard dilution of the microorganism to be tested in 100 microliters of the appropriate medium. Appropriate medium: E. coli, LB medium; Staphylococcus strains, Trypticase Soy; and for H. pylori and C. jejuni, Brain Heart Infusion. The compounds to be tested were set at 32 μg/ml in 200 microliters in well one and then serially diluted to provide a range from 32 to 0.06. The wells were scored visually at 24 h. The well where there was no growth was recorded as the MIC. […]
as §2

[4] = Helicobacter pylori, 24 h, read-out: MIC (μM) H. pylori
[5] = Escherichia coli, read-out: MIC (μM) E. coli Biofilm
[6] = Escherichia coli, 24 h, read-out: MIC (μM) E. coli Plank
[7] = Campylobacter jejuni, 24 h, read-out: MIC (μM) C. jejuni
[8] = Staphylococcus aureus, MRSA, 24 h, read-out: MIC (μM) MRSA
[9] = broth dilution, Brain Heart Infusion, 24 h, read-out: MIC (μM) H. pylori
[10] = biofilm, read-out: MIC (μM) E. coli Biofilm
[11] = broth dilution, LB medium, 24 h, read-out: MIC (μM) E. coli Plank
[12] = broth dilution, Brain Heart Infusion, 24 h, read-out: MIC (μM) C. jejuni
[13] = broth dilution, Trypticase Soy, 24 h, read-out: MIC (μM) S. epidermidis Plank
[14] = broth dilution, Trypticase Soy, 24 h, read-out: MIC (μM) MRSA
[15] = Helicobacter pylori, Thiophene analogues table, read-out: MIC H. pylori
[16] = Escherichia coli, biofilm, Thiophene analogues table, read-out: MIC E. coli Biofilm
[17] = Escherichia coli, planktonic, Thiophene analogues table, read-out: MIC E. coli Plank
[18] = Campylobacter jejuni, Thiophene analogues table, read-out: MIC C. jejuni
[19] = Staphylococcus aureus, MRSA, Thiophene analogues table, read-out: MIC MRSA
[20] = Clostridioides difficile, Thiophene analogues table, read-out: MIC C. difficile

Compound: O=C(Nc1ncc([N+](=O)[O-])s1)c1cc(Br)c(Br)o1 [VPC161164]
MIC S. epidermidis Biofilm (S. epidermidis biofilm; Furan analogues table): 20.2 µM (≈ 8.02 µg/mL)
MIC (H. pylori; Furan analogues table, read-out: MIC H. pylori): 2.8 µM (≈ 1.11 µg/mL)
MIC (E. coli biofilm; biofilm, Furan analogues table, read-out: MIC E. coli Biofilm): 40.3 µM (≈ 16 µg/mL)
MIC (E. coli; planktonic, Furan analogues table, read-out: MIC E. coli Plank): 60.5 µM (≈ 24 µg/mL)
MIC (C. jejuni; Furan analogues table, read-out: MIC C. jejuni): 20.2 µM (≈ 8.02 µg/mL)
MIC (S. epidermidis; planktonic, Furan analogues table, read-out: MIC S. epidermidis Plank): 15.1 µM (≈ 5.99 µg/mL)
MIC (MRSA; Furan analogues table, read-out: MIC MRSA): 3.8 µM (≈ 1.51 µg/mL)
PFOR inhibition relative to nitazoxanide (=100) ([1]; Furan analogues table): 56%

Compound: O=C(Nc1ncc([N+](=O)[O-])s1)c1ccc(F)cc1 [VPC161167, 4-Fluoro-N-(5-nitrothiazol-2-yl)benzamide]
MIC (μM) S. epidermidis Biofilm (S. epidermidis biofilm): 29.9 µM (≈ 7.99 µg/mL)
MIC (H. pylori; [4]): 0.9 µM (≈ 0.241 µg/mL)
MIC (E. coli biofilm; [5]): 120 µM (≈ 32 µg/mL)
Disk Diffusion (%) C. difficile (C. difficile [2]): 89%
MIC (E. coli; [6]): 120 µM (≈ 32 µg/mL)
MIC (C. jejuni; [7]): 2.8 µM (≈ 0.748 µg/mL)
MIC (S. epidermidis; Staphylococcus epidermidis, 24 h, read-out: MIC (μM) S. epidermidis Plank): 15 µM (≈ 4.01 µg/mL)
MIC (MRSA; [8]): 8.4 µM (≈ 2.24 µg/mL)
PFOR inhibition relative to nitazoxanide (=100) [1]: 99%

Compound: O=C(Nc1ncc([N+](=O)[O-])s1)c1ccc(C(=O)C(F)(F)F)cc1 [VPC161175]
MIC (μM) S. epidermidis Biofilm (S. epidermidis biofilm): 92.7 µM (≈ 32 µg/mL)
MIC (H. pylori; [9]): 4.3 µM (≈ 1.48 µg/mL)
MIC (E. coli biofilm; [10]): 92.7 µM (≈ 32 µg/mL)
MIC (E. coli; [11]): 92.7 µM (≈ 32 µg/mL)
MIC (C. jejuni; [12]): 69.5 µM (≈ 24 µg/mL)
MIC (S. epidermidis; [13]): 92.7 µM (≈ 32 µg/mL)
MIC (MRSA; [14]): 92.7 µM (≈ 32 µg/mL)
MIC (C. difficile [3]; agar dilution, anaerobic, Wilkins Chalgrin agar, read-out: MIC (μM) C. difficile): 23.2 µM (≈ 8.01 µg/mL)

Compound: O=C(Nc1ncc([N+](=O)[O-])s1)c1cc2ccccc2s1 [VPC161180]
MIC S. epidermidis Biofilm (S. epidermidis biofilm; Thiophene analogues table): 19.7 µM (≈ 6.02 µg/mL)
MIC (H. pylori; Thiophene analogues table, read-out: MIC H. pylori): 2.5 µM (≈ 0.763 µg/mL)
MIC (E. coli biofilm; biofilm, Thiophene analogues table, read-out: MIC E. coli Biofilm): 104.8 µM (≈ 32 µg/mL)
Disk Diff (%) C. difficile (C. difficile [2]): 81%
MIC (E. coli; planktonic, Thiophene analogues table, read-out: MIC E. coli Plank): 104.8 µM (≈ 32 µg/mL)
MIC (C. jejuni; Thiophene analogues table, read-out: MIC C. jejuni): 9.8 µM (≈ 2.99 µg/mL)
MIC (S. epidermidis; planktonic, Thiophene analogues table, read-out: MIC S. epidermidis Plank): 13.1 µM (≈ 4 µg/mL)
MIC (MRSA; Thiophene analogues table, read-out: MIC MRSA): 6.6 µM (≈ 2.02 µg/mL)
MIC (C. difficile [3]; Thiophene analogues table, read-out: MIC C. difficile): 13.1 µM (≈ 4 µg/mL)

MIC S. epidermidis Biofilm (S. epidermidis biofilm; Thiophene analogues table): 11.8 µM (≈ 4.01 µg/mL)
MIC (H. pylori; [15]): 2.2 µM (≈ 0.748 µg/mL)
MIC (E. coli biofilm; [16]): 94.2 µM (≈ 32 µg/mL)
MIC (E. coli; [17]): 94.2 µM (≈ 32 µg/mL)
MIC (C. jejuni; [18]): 5.9 µM (≈ 2 µg/mL)
MIC (S. epidermidis; Staphylococcus epidermidis, planktonic, Thiophene analogues table, read-out: MIC S. epidermidis Plank): 5.9 µM (≈ 2 µg/mL)
MIC (MRSA; [19]): 2.9 µM (≈ 0.985 µg/mL)
MIC (C. difficile [3]; [20]): 11.8 µM (≈ 4.01 µg/mL)
Compound: O=C(Nc1ncc([N+](=O)[O-])s1)c1sc2ccccc2c1Cl [VPC161181]
Disk Diff (%) C. difficile (C. difficile [2]): 72%

Compound: O=C(Nc1ncc([N+](=O)[O-])s1)c1cccc(C(F)(F)F)c1 [VPC161183, N-(5-Nitrothiazol-2-yl)-3-(trifluoromethyl)benzamide]
MIC (μM) S. epidermidis Biofilm (S. epidermidis biofilm): 25.2 µM (≈ 7.99 µg/mL)
MIC (H. pylori; [4]): 3.5 µM (≈ 1.11 µg/mL)
MIC (E. coli biofilm; [5]): 31.5 µM (≈ 9.99 µg/mL)
Disk Diffusion (%) C. difficile (C. difficile [2]): 95 ± 2%
MIC (E. coli; [6]): 37.8 µM (≈ 12 µg/mL)
MIC (C. jejuni; [7]): 4.7 µM (≈ 1.49 µg/mL)
MIC (MRSA; [8]): 3.2 µM (≈ 1.02 µg/mL)
MIC (C. difficile [3]; Clostridioides difficile, read-out: MIC (μM) C. difficile): 12.6 µM (≈ 4 µg/mL)
PFOR inhibition relative to nitazoxanide (=100) [1]: 87%

MIC S. epidermidis Biofilm (S. epidermidis biofilm; Thiophene analogues table): 62.7 µM (≈ 16 µg/mL)
MIC (H. pylori; [15]): 2.9 µM (≈ 0.74 µg/mL)
MIC (E. coli biofilm; [16]): 125 µM (≈ 32 µg/mL)
MIC (E. coli; [17]): 125 µM (≈ 32 µg/mL)
MIC (C. jejuni; [18]): 2.9 µM (≈ 0.74 µg/mL)
MIC (MRSA; [19]): 15.7 µM (≈ 4.01 µg/mL)
MIC (C. difficile [3]; [20]): 31.3 µM (≈ 7.99 µg/mL)
PFOR inhibition relative to nitazoxanide (=100) ([1]; Thiophene analogues table): 88%
Compound: O=C(Nc1ncc([N+](=O)[O-])s1)c1cccs1 [VPC161195, N-(5-Nitrothiazol-2-yl)thiophene-2-carboxamide]
Disk Diff (%) C. difficile (C. difficile [2]): 97%

Compound: O=C(C=Cc1ccccc1)Nc1ncc([N+](=O)[O-])s1 [VPC161200]
MIC (μM) S. epidermidis Biofilm (S. epidermidis biofilm): 14.5 µM (≈ 3.99 µg/mL)
MIC (H. pylori; [9]): 0.3 µM (≈ 0.0826 µg/mL)
MIC (E. coli biofilm; [10]): 116.2 µM (≈ 32 µg/mL)
MIC (E. coli; [11]): 116.2 µM (≈ 32 µg/mL)
MIC (C. jejuni; [12]): 2.7 µM (≈ 0.743 µg/mL)
MIC (S. epidermidis; [13]): 29.1 µM (≈ 8.01 µg/mL)
MIC (MRSA; [14]): 116.2 µM (≈ 32 µg/mL)
PFOR inhibition relative to nitazoxanide (=100) [1]: 93%

Reference: US8835644B2, “Broad spectrum benzothiophene-nitrothiazolide and other antimicrobials” (University of Virginia Patent Foundation, priority 2009, dated 2014)
